Measured values as given in US8030446B2, “Mutant proline-and-arginine rich peptides and methods for using the same” (Trustees of Dartmouth College, priority 2006, dated 2011).
Marks after values point to notes of the source that are not given here. Ends that are not written are not given here.

Legend:
[1] = target: T1, Mammalian (Human) 20s Proteasome (Homo sapiens, UniProt P25788); conditions: Gaczynska, et al. (2003); cited from earlier work
T1 construct: purchased Boston Biochem (Cambridge, Mass.)

[2] = target: T1, Mammalian (Human) 20s Proteasome; experiment: Chymotrypsin-like (ChT-L) peptidase activity of 20S proteasome, N-succinyl-LLVY-AMC substrate; assay type: biochemical; conditions: chymotrypsin-like activity, 15-minute pre-incubation, 1 hour at 37° C., pH 7.5, 0.03% SDS; read-out: I50
Method: Determination of Enzymatic Activity. Mammalian (Human) 20s Proteasome was purchased from Boston Biochem (Cambridge, Mass.); substrate, N-succinyl-LLVY-AMC was purchased from SIGMA (St. Louis, Mo.); and negative control, Lactacystin, was purchased from SIGMA. […] Activity was determined by measuring the amount of a fluorescence observed upon release of the MCA group after a 1 hour incubation at 37° C. in 50 mM sodium phosphate buffer at pH 7.5 containing 0.03% SDS. Inhibition by PR-peptide was measured after a 15-minute pre-incubation at 37° C. of each peptide with 20S proteasome, followed by the addition of the substrate and the one hour incubation.

[3] = test system: genes regulating the NF-κB pathway in human umbilical vein endothelial cells (HUVEC); experiment: NF-κB pathway-specific gene expression microarray in HUVEC treated with PR peptides; assay type: cell-based; conditions: for overall inhibitory effect on NF-κB pathway-related gene expression (in words): FIG. 1, averaged % inhibition over 13 down-regulated genes, relative to PR11; for AKT1 gene expression / ATF2 gene expression / CREB1 gene expression / ELK3 gene expression / JNK1 gene expression / MEK4 gene expression / MEKK1 gene expression / MEKK2 gene expression / NF-κB1 gene expression / NF-κB2 gene expression / P38 MAPK gene expression / RANK gene expression / RIP gene expression / TAK1 gene expression / TBK1 gene expression / TRAF6 gene expression / number of significantly reduced genes: HUVEC; for AKT1 gene expression / ATF2 gene expression / CREB1 gene expression / ELK3 gene expression / JNK1 gene expression / MEK4 gene expression / MEKK1 gene expression / MEKK2 gene expression / NF-κB1 gene expression / NF-κB2 gene expression / P38 MAPK gene expression / RANK gene expression / RIP gene expression / TAK1 gene expression / TBK1 gene expression / TRAF6 gene expression: PR peptides 1 μM, 8 hours, relative to untreated controls; for number of significantly reduced genes: of the 13 down-regulated genes of Tables 5 and 6
Method: Cell Culture. Human umbilical vein endothelial cells (HUVEC, Cambrex Bio Science Walkersville, Inc., East Rutherford, N.J.) were cultured in endothelial cell basal medium-2 supplemented with EGM-2 SINGLEQUOTS (Cambrex Bio Science Walkersville, Inc.) and FBS. Confluent HUVEC, passage 3-5, were starved overnight in medium supplemented with 0.5% FBS, 0.25% BSA and incubated with PR peptides (1 μM) for 8 hours in starvation medium.
Total RNA Extraction and Gene Profiling by Microarray. Total RNA extraction was performed using the RNEASY mini kit protocol (QIAGEN, Valencia, Calif.). The quality and quantity of total RNA was determined using RNA 6000 Nano chips (Agilent Technology, Santa Clara, Calif.).
Gene profiling was performed using pathway-specific gene expression array for NF-κB signaling transduction (HS-016.2, SuperArray Bioscience Corp.). A total of 96 cDNA fragments from genes related to NF-κB mediated signal transduction, including: NF-κB/IκB family, NF-κB responsive genes (adhesion molecules, cytokines), extracellular ligands, transmembrane receptors, adaptor proteins, signal transduction kinases, and transcription factors were printed in tetraspot format on 3.8×4.8 cm nylon array membrane. Total RNA (0.5 μg) was reverse-transcribed into cDNA labeled with biotin-dUTP according to the manufacture's protocol. After overnight hybridization at 60° C., array membranes were treated with alkaline phosphate-conjugated streptavidin followed by chemiluminescent alkaline phosphate substrate CDP-star (Applied Biosystems, Foster City, Calif.) and exposed to X-ray film. The data were extracted from raw images using […] software (SuperArray, Bioscience Corp.). After background subtraction, the level of gene expression was determined as signal intensity units relative to total array intensity signal. Statistical significant altered genes (PR peptides vs. control) at P values <0.05 were analyzed by Student's t-test, 2-tailed distribution. The data were expressed as fold change PR peptides relative to controls (untreated cells kept in similar conditions).

IC50 [2] | Sequence | 20S proteasome inhibiting activity (in words) [1] | overall inhibitory effect on NF-κB pathway-related gene expression (in words) [3] | AKT1 gene expression [3] | ATF2 gene expression [3] | CREB1 gene expression [3] | ELK3 gene expression [3] | JNK1 gene expression [3] | MEK4 gene expression [3] | MEKK1 gene expression [3] | MEKK2 gene expression [3] | NF-κB1 gene expression [3] | NF-κB2 gene expression [3] | P38 MAPK gene expression [3] | RANK gene expression [3] | RIP gene expression [3] | TAK1 gene expression [3] | TBK1 gene expression [3] | TRAF6 gene expression [3] | number of significantly reduced genes [3]
– | RRRPRPPY [PR8] | does not inhibit 20S activity | – | – | – | – | – | – | – | – | – | – | – | – | – | – | – | – | – | –
543 nM | RKRPRPPYLPR [Peptide K2] | – | not significantly different than PR11 | 1.6 fold change | −2.0^# fold change | −2.6 fold change | 1.5* fold change | −3.1 fold change | −9.3^# fold change | −5.3* fold change | −1.7 fold change | −2.1 fold change | −1.5 fold change | −1.4 fold change | 1.1 fold change | −2.8* fold change | −2.1* fold change | −4.6^# fold change | −2.5 fold change | 6 genes
2710 nM | KKKPRPPYLPR [KKK] | – | lowest inhibitory effect in this series | 1.7 fold change | −1.3 fold change | −1.3 fold change | 1.4^# fold change | −2.5 fold change | −2.8* fold change | −2.0 fold change | −1.5 fold change | −2.4 fold change | −1.4 fold change | −1.3 fold change | 1.2 fold change | −2.6 fold change | −2.9* fold change | −1.8^# fold change | −1.3 fold change | 3 genes
819 nM | RRKPRPPYLPR [Peptide K3] | – | not significantly different than PR11 | 1.7 fold change | −1.6* fold change | −1.6 fold change | 1.4^# fold change | −3.2* fold change | −3.1* fold change | −3.2 fold change | −1.9^# fold change | −2.2 fold change | −1.2 fold change | −1.7* fold change | 1.7* fold change | −2.4* fold change | −3.1^# fold change | −1.8* fold change | −1.7 fold change | 8 genes
3150 nM | RRAPRPPYLPR [Peptide A3] | – | more active than A1-PR11 and A2-PR11 | 1.7 fold change | −1.3 fold change | −1.3 fold change | 1.3* fold change | −2.6 fold change | −2.7* fold change | −1.9 fold change | −2.1* fold change | −2.0 fold change | −1.4 fold change | −1.9* fold change | 1.7* fold change | −3.0* fold change | −3.3* fold change | −2.1* fold change | −1.4 fold change | 5 genes
